Results: ChEMBL document CHEMBL5126561, “New pyrazole-tetrazole hybrid compounds as potent α-amylase and non-enzymatic glycation inhibitors” (Bioorg Med Chem Lett, 2022)
≈ marks a conversion by molar mass, not a printed value.

Key:
[1] = molecular target: T1, Alpha amylase (Homo sapiens, UniProt P0DUB6); test: Inhibition of alpha-amylase (unknown origin) assessed as reduction in conversion of starch to glucose preincubated for 10 mins followed by substrate addition and measured after 20 mins by DNSA reagent based spectrophotometric analysis
T1 sequence (P0DUB6 whole entry): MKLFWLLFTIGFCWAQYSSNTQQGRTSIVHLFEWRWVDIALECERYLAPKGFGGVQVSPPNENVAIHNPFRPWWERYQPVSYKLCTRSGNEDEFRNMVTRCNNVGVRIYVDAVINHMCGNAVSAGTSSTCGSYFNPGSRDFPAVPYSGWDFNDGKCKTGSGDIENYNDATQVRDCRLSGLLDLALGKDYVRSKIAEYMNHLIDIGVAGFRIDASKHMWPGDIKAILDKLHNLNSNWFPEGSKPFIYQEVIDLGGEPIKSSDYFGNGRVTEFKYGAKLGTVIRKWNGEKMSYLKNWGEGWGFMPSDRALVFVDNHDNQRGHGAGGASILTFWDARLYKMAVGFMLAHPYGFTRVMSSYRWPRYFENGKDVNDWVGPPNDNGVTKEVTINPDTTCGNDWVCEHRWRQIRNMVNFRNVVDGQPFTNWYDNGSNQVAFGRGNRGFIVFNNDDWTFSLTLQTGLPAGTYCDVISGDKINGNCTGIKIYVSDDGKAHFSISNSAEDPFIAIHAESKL

[2] = molecular target: Hemoglobin HbA (Homo sapiens, UniProt P68871+P69905); test: Inhibition of non-enzymatic glycation in hemoglobin (unknown origin) by spectrophotometric analysis; assay type: protein-complex assay
[3] = Lipophilicity, logP of compound; assay type: physicochemical; details: octanol/water
[4] = molecular target: Alpha amylase (Homo sapiens) (UniProt P0DUB6); test: Potency index, ratio of acarbose IC50 to test compound IC50 for inhibition of alpha-amylase (unknown origin) assessed as reduction in conversion of starch to glucose preincubated for 10 mins followed by substrate addition and measured after 20 mins by DNSA reagent based spectrophotometric analysis; details: time 30.0 min
[5] = molecular target: Hemoglobin HbA (Homo sapiens) (UniProt P69905+P68871); test: Potency index, ratio of gallic acid IC50 to test compound IC50 for inhibition of non-enzymatic glycation in hemoglobin (unknown origin) by spectrophotometric analysis; assay type: protein-complex assay
Sequence of Hemoglobin HbA (Homo sapiens) (P68871 2-147 partner limits assumed): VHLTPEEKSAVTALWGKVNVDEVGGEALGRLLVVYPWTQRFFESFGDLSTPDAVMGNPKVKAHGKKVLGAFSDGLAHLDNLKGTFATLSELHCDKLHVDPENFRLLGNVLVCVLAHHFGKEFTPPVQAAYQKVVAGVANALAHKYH
Sequence of Hemoglobin HbA (Homo sapiens) (P69905 2-142 limits assumed): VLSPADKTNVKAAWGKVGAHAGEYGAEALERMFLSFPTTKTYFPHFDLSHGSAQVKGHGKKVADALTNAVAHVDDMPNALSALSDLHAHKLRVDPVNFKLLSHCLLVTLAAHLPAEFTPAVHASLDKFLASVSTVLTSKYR

Sequence of Hemoglobin HbA (P69905 whole entry): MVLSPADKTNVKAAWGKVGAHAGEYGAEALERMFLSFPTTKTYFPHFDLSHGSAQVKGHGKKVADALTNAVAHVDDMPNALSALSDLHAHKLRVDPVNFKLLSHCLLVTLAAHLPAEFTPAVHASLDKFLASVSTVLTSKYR
Sequence of Hemoglobin HbA (P68871 whole entry): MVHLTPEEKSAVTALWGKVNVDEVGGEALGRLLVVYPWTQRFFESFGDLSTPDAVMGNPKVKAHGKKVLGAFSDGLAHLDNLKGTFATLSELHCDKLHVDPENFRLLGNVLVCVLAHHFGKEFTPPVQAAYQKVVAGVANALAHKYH

IC50 [1] | IC50 [2] | logP [3] | Ratio IC50 [4] | Ratio IC50 [5] | SMILES
4.82 10^-3mg/ml | 352 µM | 0.86 | 70 | 2 | Cc1cc(Cn2nnnc2-c2ccccn2)n[nH]1
0.54 mg/mL (≈ 2.01 mM) | 2520 µM | 2.08 |  |  | CCn1nc(Cn2nnc(-c3ccccn3)n2)cc1C
0.023 mg/mL (≈ 0.0815 mM) | 1200 µM | 2.1 | 15 |  | CCn1nc(Cn2nnnc2Cc2ccccc2)cc1C
1.13 10^-4mg/ml | 223 µM | 1.34 | 3010 | 2.8 | CCn1nc(Cn2nnnc2-c2ccccn2)cc1C

Second part, the compound before the results:

SMILES | IC50 [1] | IC50 [2] | logP [3] | Ratio IC50 [4] | Ratio IC50 [5]
Cc1cc(Cn2nnc(Cc3ccccc3)n2)n[nH]1 | 5.59 mg/mL (≈ 22 mM) | 1060 µM | 2.5 |  | 
Cc1cc(Cn2nnc(-c3ccccn3)n2)n[nH]1 | 0.95 mg/mL (≈ 3.94 mM) | 1950 µM | 1.69 |  | 
O=C(O)c1cc(O)c(O)c(O)c1 [GALLIC ACID] |  | 999 µM |  |  | 
CCn1nc(Cn2nnc(Cc3ccccc3)n2)cc1C | 2.36 mg/mL (≈ 8.36 mM) | 1970 µM | 2.88 |  | 
Cc1cc(Cn2nnnc2Cc2ccccc2)n[nH]1 | 1.97 mg/mL (≈ 7.75 mM) | 1020 µM | 1.62 |  | 
